What was measured:
Type in all cases: cell-based, mouse
[1] = test system: corneal epithelial cells; test: ZO-1 staining of corneal epithelial cells treated with recombinant proteins; settings: FIG. 4D, 4E
Procedure: (§1) Recombinant pro-IL-1β and pro-IL-18 proteins were generated from E. coli. The proteins were treated with caspase 1 to obtain the active forms.

[2] = test system: mCEC; test: Transepithelial electrical resistance (TEER) of mCEC treated with recombinant proteins; settings: FIG. 4C
Procedure: as §1
mCEC were seeded in transwell inserts (2×10^5 per well) and allowed to become confluent. For the protein treatment, proteins were added into the culture medium 16 or 4 hours before measurement; the EVOM2 instrument was used to measure the TEER. For the co-culture experiments, mCEC were seeded in the transwell inserts and allowed to become confluent. The isolated primary neutrophils were then seeded into 24 well plates and the EVOM2 instrument was used to measure the TEER at 24 hr.

[3] = test system: mCEC; test: Scratch wound assay of mCECs treated with recombinant cytokines; settings: recombinant proteins, FIG. 4A, 4B
Procedure: as §1
The coding sequences of human pro-IL-18 and pro-IL-1β were cloned into the PET28a vector, where an N-terminal 6xHis tag is added. The purification procedure is similar to the published protocol with minor modifications (Ramirez, et al. J Biol Chem. 2018 293(18): 7058-7067). Briefly, the respective plasmid was transformed into BL21 […] chemically competent cells. A single colony was picked to grow in LB media at 37° C. until OD600 researched 0.6, and 0.5 mM IPTG was used for overnight induction at ˜16° C. Harvested cells were collected by centrifugation, followed by resuspension in 50 mM Hepes (pH 7.5), 5 mM MgCl2, 1 mM PMSF, ˜0.5 mg/ml lysozyme and 50-100 U DNase I. After sonication, the cell lysates were centrifuged. The supernatant was then applied to a Ni-NTA affinity chromatography, where buffer A contained 50 mM Hepes (pH 7.5) and Buffer B contained an extra 500 mM imidazole. Fractions with the highest purities were pooled and applied to a diethylaminoethyl-cellulos (DEAE) ion exchange chromatography, where buffer A′ contained 50 mM Hepes (pH 7.5) and Buffer B′ contained an extra 500 mM NaCl. As judged by SDS PAGE, fractions with >95% purity were pooled and dialyzed in 50 mM Hepes (pH 7.5) and 100 mM NaCl.
Recombinant human caspase-1 was purchased from Enzo Life Sciences (ALX-201-056). The cleavage of pro-IL-18 or pro-IL-1β was performed at 37° C. in PBS buffer containing 2 mM DTT.
To induce cellular migration, an in vitro scratch test was performed using mCECs. Cells were treated with dissected corneas or cytokines when they reached confluence, were subsequently scratched with a micropipette tip, and incubated for up to 12 hrs. Images were taken at 0, 3, 6, and 9 hours after the initial scratch. Images of wound closure were quantified by using ImageJ software.

## active IL-1β: recombinant human pro-IL-1β from E. coli treated with caspase 1 to obtain the active form
[1]
  tight junctions by ZO-1 staining: disrupted epithelial cell tight junctions
[1]; listed as activated IL-1β
  tight junctions by ZO-1 staining: tight junction was disrupted
[2]
  epithelial tight junctions / electrical resistance by TEER: disrupted epithelial cell tight junctions
[2]; listed as activated IL-1β
  epithelial tight junctions / electrical resistance by TEER: significantly reduce the electrical resistance
[3]
  mCEC wound closure / migration: significantly delayed mCEC wound closure
[3]; listed as activated IL-1β
  mCEC wound closure / migration: significantly suppress corneal epithelial cell migration

## active IL-18: recombinant human pro-IL-18 from E. coli treated with caspase 1 to obtain the active form
[1]
  tight junctions by ZO-1 staining: disrupted epithelial cell tight junctions
[1]; listed as activated IL-18
  tight junctions by ZO-1 staining: tight junction was disrupted
[2]
  epithelial tight junctions / electrical resistance by TEER: disrupted epithelial cell tight junctions
[2]; listed as activated IL-18
  epithelial tight junctions / electrical resistance by TEER: significantly reduce the electrical resistance
[3]
  mCEC wound closure / migration: significantly delayed mCEC wound closure
[3]; listed as activated IL-18
  mCEC wound closure / migration: significantly suppress corneal epithelial cell migration

## boiled IL-1β: boiled recombinant IL-1β protein used as control
[3]
  mCEC wound closure / migration: failed to alter mCEC migration

## boiled IL-18: boiled recombinant IL-18 protein used as control
[3]
  mCEC wound closure / migration: failed to alter mCEC migration

## pro-IL-1β: recombinant pro-IL-1β protein generated from E. coli, used as control
[3]
  mCEC wound closure / migration: failed to alter mCEC migration

## pro-IL-18: recombinant pro-IL-18 protein generated from E. coli, used as control
[3]
  mCEC wound closure / migration: failed to alter mCEC migration
